Consider five compounds from ChEMBL document CHEMBL1130866, “Conodiparines A-D, new bisindoles from Tabernaemontana. Reversal of vincristine-resistance with cultured cells” (Bioorg Med Chem Lett, 1998).

What is called IC50 is the concentration needed to halve the response being measured.

Holding throughout (assay type): functional, cell-based
Assay [1] relates to KB. The assay can be described thus: Compound was evaluated for its cytotoxicity against vincristine-sensitive KB/S human oral epidermoid carcinoma cell lines.
The test system of assay [2] is KB. Description: Compound was evaluated for its cytotoxicity against vincristine-resistant KB/VJ300 human oral epidermoid carcinoma cell lines, with added vincristine 0.25 ug/mL.
Assay [3] concerns KB. The assay can be described thus: Compound was evaluated for its cytotoxicity against vincristine-resistant KB/VJ300 human oral epidermoid carcinoma cell lines.

SMILES strings stand for the structures. In brackets after ≈: the same amount, converted by molar mass.

`C/C=C1\CN(C)[C@H]2Cc3c([nH]c4ccccc34)[C@@H](c3cc4c5c([nH]c4cc3OC)[C@]3(C(=O)OC)C[C@@H]4C[C@H]([C@H](C)O)C3N(CC5)C4)C[C@H]1[C@]2(CO)C(=O)OC`: the IC50 in the assay with KB [1] is 19.2 mg/L (≈ 25.6 µM); with KB [2], 1.45 mg/L (≈ 1.93 µM); in the assay on KB [3] it was 13.5 mg/L (≈ 18 µM).
`C/C=C1/CN(C)[C@H]2Cc3c([nH]c4ccccc34)[C@@H](c3c(OC)ccc4c5c([nH]c34)[C@]3(C(=O)OC)C[C@@H]4C[C@H](C(C)=O)C3N(CC5)C4)C[C@H]1[C@]2(CO)C(=O)OC`: the IC50 in the assay with KB [1] was determined as 18.6 mg/L (≈ 24.8 µM); with KB [2] it was 4.6 mg/L (≈ 6.14 µM); in the assay with KB [3], 13.6 mg/L (≈ 18.2 µM).
On the same counts, the results for `C/C=C1/CN(C)[C@H]2Cc3c([nH]c4ccccc34)[C@@H](c3c(OC)ccc4c5c([nH]c34)[C@]3(C(=O)OC)C[C@@H]4C[C@H]([C@H](C)O)C3N(CC5)C4)C[C@H]1[C@]2(CO)C(=O)OC` are 20.8 mg/L (≈ 27.7 µM), 2.45 mg/L (≈ 3.26 µM) and 15 mg/L (≈ 20 µM).
With `CC[C@]1(O)C[C@H]2CN(CCc3c([nH]c4ccccc34)[C@@](C(=O)OC)(c3cc4c(cc3OC)N(C=O)[C@H]3[C@@](O)(C(=O)OC)[C@H](OC(C)=O)[C@]5(CC)C=CCN6CC[C@]43[C@@H]65)C2)C1` [VINCRISTINE], the results for the IC50 in the assay with KB [1] and in the assay on KB [3] were 0.014 mg/L (≈ 0.017 µM) and 1.05 mg/L (≈ 1.27 µM), respectively.
`C/C=C1/CN(C)[C@H]2Cc3c([nH]c4ccccc34)[C@@H](c3cc4c5c([nH]c4cc3OC)[C@]3(C(=O)OC)C[C@@H]4C[C@H](C(C)=O)[C@@H]3N(CC5)C4)C[C@H]1[C@]2(CO)C(=O)OC`: the values for the IC50 in the assay on KB [1], with KB [2] and with KB [3] were 21.4 mg/L (≈ 28.6 µM), 5.6 mg/L (≈ 7.48 µM) and 17 mg/L (≈ 22.7 µM), respectively.
